Laboratory results from PMC8382222, “Easy Surface Functionalization and Bioconjugation of Peptides as Capture Agents of a Microfluidic Biosensing Platform for Multiplex Assay in Serum” (Bioconjugate Chemistry, 2021).
Positions of bridges follow the written chain, without caps; N, C: chain ends. Residues, ends and D or L forms follow the SMILES beside them.

Tests used:
[1] = molecular target: T1, CRP protein (Homo sapiens, UniProt P02741); assay: One-step injection SPR (Taylor dispersion), CRP immobilized; type: binding
T1 construct: purchased Sigma-Aldrich
T1 sequence (P02741 19-224): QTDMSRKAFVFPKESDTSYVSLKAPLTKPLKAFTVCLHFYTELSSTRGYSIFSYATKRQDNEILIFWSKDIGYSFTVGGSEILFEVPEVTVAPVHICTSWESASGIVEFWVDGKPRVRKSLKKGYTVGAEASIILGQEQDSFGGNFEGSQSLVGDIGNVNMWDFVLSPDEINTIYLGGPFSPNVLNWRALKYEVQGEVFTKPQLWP
Experimental: (§1) SPR experiments were performed by one-step injection with the aim of evaluating and confirming the binding constant between peptide and biomarkers. Analyte concentrations of 30 μM of VEFG-114 peptide and 245 μM of CRP-1 peptide were used. The one-step experiment was based on the Taylor dispersion theory, so a unique concentration of peptide was dispersed into a running buffer directly in the flow cell in order to have a final sigmoidal profile.[41],[42] […] For the G6 peptide, the affinity against the TNFα protein was previously estimated by our research group in a recent study (data not shown).[18]
SPR experiments were performed by one-step injection. VEGF and CRP protein were immobilized at a concentration of 100 μg/mL in a 10 mM acetate buffer pH 4.5 and 3.5, respectively, (flow 10 μL/min, injection time 20 min) on a COOH1 SensiQ sensor chip, using EDC/NHS chemistry (0.4 M EDC/0.1 M NHS, flow 25 μL/min, injection time 4 min), achieving an 800 RU signal. Groups of reactive residues were deactivated by treatment with ethanolamine hydrochloride 1 M, pH 8.5. The reference channel was prepared by activation with EDC/NHS and deactivation with ethanolamine. Analyte concentrations of 30 μM for VEFG-114 peptide and 245 μM for CRP-1 peptide were used with a flow rate of 100 μL min^–1 and a 300 s dissociation time. […]

[2] = molecular target: T2, VEGF protein (Homo sapiens, UniProt P15692); assay: One-step injection SPR (Taylor dispersion), VEGF immobilized; type: binding
T2 construct: purchased Peprotech
T2 sequence (P15692 1-191 isoform P15692-4): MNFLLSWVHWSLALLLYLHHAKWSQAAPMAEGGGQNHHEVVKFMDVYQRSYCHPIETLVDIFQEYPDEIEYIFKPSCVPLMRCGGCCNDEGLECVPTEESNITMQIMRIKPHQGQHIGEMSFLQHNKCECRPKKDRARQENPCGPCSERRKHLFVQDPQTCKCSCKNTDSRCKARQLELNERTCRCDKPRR
Experimental: as §1
Reagents for peptide synthesis (Fmoc-protected amino acids, resins, activation, and deprotection reagents) were purchased from Iris Biotech GmbH (Waldershofer Str. 49–51, 95615); EDC/NHS, PDMS, and CRP (C- Reactive Protein) were from Sigma-Aldrich. VEGF (Recombinant Human VEGF165) was purchased from Peprotech. Anti-CRP (Anti-C Reactive Protein antibody (FITC) (ab19174)) and Anti-VEGF (Anti-Recombinant Human VEGF antibody (FITC)) were from Abcam. TNF-α and Anti-TNF-α (Anti-Tumor Necrosis Factor-α antibody (FITC)) were from Prospec. Solvents for peptide synthesis and HPLC analyses were purchased from Sigma-Aldrich; reversed-phase columns for peptide analysis and the LC–MS system were supplied, respectively, from Agilent Technologies and Waters (Milan, Italy). […]

dissociation value (in words) ([1]; 245 μM CRP-1 peptide, 1:1 interaction model) | Kd ([1]; CRP immobilized at 100 μg/mL (10 mM acetate pH 3.5) on COOH1 SensiQ chip, 245 μM CRP-1 analyte, 100 μL/min, 300 s dissociation, 1:1 binding model, QDAT, mean ± SD) [µM] | dissociation value (in words) ([2]; 30 μM peptide, 1:1 interaction model) | Kd ([2]; VEGF immobilized at 100 μg/mL (10 mM acetate pH 4.5) on COOH1 SensiQ chip, 30 μM VEGF-114 analyte, 100 μL/min, 300 s dissociation, 1:1 binding model, QDAT, mean ± SD) [µM] | Structure (SMILES)
low micromolar | 12 ± 0.1 |  |  | CC(C)C[C@H](NC(=O)[C@H](CCC(N)=O)NC(=O)[C@@H]1CSSC[C@H](NC(=O)[C@H](C)NC(=O)[C@H](Cc2c[nH]c3ccccc23)NC(=O)[C@@H](N)CCC(=O)O)C(=O)N[C@@H](CC(N)=O)C(=O)N[C@@H](CC(=O)O)C(=O)N[C@@H](CCCNC(=N)N)C(=O)NCC(=O)N[C@@H](Cc2ccccc2)C(=O)N[C@@H](CC(N)=O)C(=O)N1)C(=O)N[C@@H](CCC(N)=O)C(=O)N[C@@H](CCCNC(=N)N)C(N)=O [CRP-1] (H-EWACNDRGFNCQLQR-NH2; disulfide 4-11)
 |  | low micromolar | 10 ± 0.7 | CC[C@H](C)[C@@H]1NC(=O)[C@H](CC(=O)O)NC(=O)[C@@H](NC(=O)[C@H](CC(N)=O)NC(=O)[C@@H]2CCCN2C(=O)[C@H](CCC(=O)O)NC(=O)[C@@H](N)C(C)C)CSSC[C@@H](C(=O)N[C@@H](Cc2ccccc2)C(=O)N[C@@H](CCC(=O)O)C(=O)N[C@@H](CCCNC(=N)N)C(=O)N[C@@H](CC(C)C)C(N)=O)NC(=O)[C@H](CCC(=O)O)NC(=O)[C@H](Cc2c[nH]c3ccccc23)NC(=O)[C@H](CCC(=O)O)NC(=O)[C@H](Cc2c[nH]c3ccccc23)NC(=O)[C@H](CCSC)NC(=O)[C@H](C(C)C)NC(=O)[C@H](Cc2c[nH]cn2)NC1=O [VEGF-114] (H-VEPNCDIHVMWEWECFERL-NH2; disulfide 5-15)
